Tests used:
[1] = system: MDA-MB-468; experiment: Growth inhibition of human MDA-MB-468 cells after 5 days by SRB assay; type: functional; settings: Homo sapiens, MDA-MB-468, 120 h
[2] = system: MCF7; experiment: Growth inhibition of human MCF7 cells after 5 days by SRB assay; type: functional; settings: Homo sapiens, MCF7, 120 h
[3] = system: HCC1954; experiment: Growth inhibition of human HCC1954 cells after 5 days by SRB assay; type: functional; settings: Homo sapiens, HCC1954, 120 h
[4] = system: MDA-MB-231; experiment: Growth inhibition of human MDA-MB-231 cells after 5 days by SRB assay; type: functional
[5] = Growth inhibition of human HMEC cells after 5 days by SRB assay; type: cell-based; settings: HMEC cells
[6] = target: T1, Cytochrome P450 1A2 (Homo sapiens, UniProt P05177); experiment: Inhibition of CYP1A2 (unknown origin) by fluorescence assay; type: ADME
T1 sequence (P05177 whole entry): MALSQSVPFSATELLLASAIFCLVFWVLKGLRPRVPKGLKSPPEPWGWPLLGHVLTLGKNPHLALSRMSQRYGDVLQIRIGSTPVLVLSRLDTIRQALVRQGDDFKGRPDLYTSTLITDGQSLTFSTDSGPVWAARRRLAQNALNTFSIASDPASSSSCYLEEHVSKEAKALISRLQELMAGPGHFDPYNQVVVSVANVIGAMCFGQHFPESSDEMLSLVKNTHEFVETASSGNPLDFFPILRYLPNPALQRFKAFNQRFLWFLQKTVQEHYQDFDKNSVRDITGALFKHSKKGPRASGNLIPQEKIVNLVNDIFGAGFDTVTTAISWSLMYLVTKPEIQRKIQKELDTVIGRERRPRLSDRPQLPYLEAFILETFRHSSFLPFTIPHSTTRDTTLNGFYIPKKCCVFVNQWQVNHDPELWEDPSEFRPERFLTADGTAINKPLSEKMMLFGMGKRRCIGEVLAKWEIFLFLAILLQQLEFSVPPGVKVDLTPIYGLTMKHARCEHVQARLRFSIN

[7] = target: Cytochrome P450 2D6 (Homo sapiens, UniProt P10635); experiment: Inhibition of CYP2D6 (unknown origin) by fluorescence assay; type: ADME
Chain of Cytochrome P450 2D6 (P10635 whole entry): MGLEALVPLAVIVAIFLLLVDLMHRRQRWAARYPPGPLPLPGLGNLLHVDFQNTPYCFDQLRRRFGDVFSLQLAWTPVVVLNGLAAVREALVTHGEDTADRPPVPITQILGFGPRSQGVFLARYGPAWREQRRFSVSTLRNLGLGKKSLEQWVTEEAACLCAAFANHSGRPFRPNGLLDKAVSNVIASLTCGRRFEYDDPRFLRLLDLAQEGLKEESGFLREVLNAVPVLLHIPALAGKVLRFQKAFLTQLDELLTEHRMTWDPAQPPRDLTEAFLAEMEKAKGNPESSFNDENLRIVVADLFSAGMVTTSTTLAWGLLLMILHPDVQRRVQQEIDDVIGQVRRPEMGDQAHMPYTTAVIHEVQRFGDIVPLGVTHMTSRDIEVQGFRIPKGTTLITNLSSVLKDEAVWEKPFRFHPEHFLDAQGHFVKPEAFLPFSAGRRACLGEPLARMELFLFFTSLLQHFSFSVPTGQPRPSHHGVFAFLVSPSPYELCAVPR

[8] = target: Cytochrome P450 2C9 (Homo sapiens, UniProt P11712); experiment: Inhibition of CYP2C9 (unknown origin) by fluorescence assay
Chain of Cytochrome P450 2C9 (P11712 whole entry): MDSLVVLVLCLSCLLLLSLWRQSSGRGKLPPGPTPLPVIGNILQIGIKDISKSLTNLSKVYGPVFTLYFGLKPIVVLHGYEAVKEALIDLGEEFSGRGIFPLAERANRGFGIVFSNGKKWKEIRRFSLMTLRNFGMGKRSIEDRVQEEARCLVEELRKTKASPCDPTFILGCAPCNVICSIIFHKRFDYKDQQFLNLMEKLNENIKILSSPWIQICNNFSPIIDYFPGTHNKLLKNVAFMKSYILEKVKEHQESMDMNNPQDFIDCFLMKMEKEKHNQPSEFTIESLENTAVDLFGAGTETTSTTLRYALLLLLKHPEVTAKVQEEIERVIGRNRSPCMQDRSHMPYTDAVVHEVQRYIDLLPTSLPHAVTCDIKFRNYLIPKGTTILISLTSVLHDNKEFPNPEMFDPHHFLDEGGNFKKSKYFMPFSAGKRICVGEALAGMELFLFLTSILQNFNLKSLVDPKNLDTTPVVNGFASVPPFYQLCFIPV

[9] = target: Cytochrome P450 2C19 (Homo sapiens, UniProt P33261); experiment: Inhibition of CYP2C19 (unknown origin) by fluorescence assay
Chain of Cytochrome P450 2C19 (P33261 whole entry): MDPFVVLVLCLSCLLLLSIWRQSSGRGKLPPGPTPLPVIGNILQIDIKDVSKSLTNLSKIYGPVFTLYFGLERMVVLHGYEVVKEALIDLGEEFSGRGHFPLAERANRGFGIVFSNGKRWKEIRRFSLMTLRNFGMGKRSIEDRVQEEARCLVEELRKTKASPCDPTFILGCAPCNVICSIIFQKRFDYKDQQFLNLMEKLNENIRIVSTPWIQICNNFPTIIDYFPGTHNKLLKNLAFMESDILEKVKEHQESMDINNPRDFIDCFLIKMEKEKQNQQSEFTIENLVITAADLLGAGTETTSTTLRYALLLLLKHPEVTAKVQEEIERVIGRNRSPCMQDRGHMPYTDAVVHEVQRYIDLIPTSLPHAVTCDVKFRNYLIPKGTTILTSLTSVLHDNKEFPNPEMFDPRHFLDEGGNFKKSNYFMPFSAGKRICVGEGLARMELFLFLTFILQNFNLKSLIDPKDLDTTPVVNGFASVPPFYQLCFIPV

[10] = Half life in mouse liver microsomes
[11] = Half life in human liver microsomes
[12] = Cmax in athymic CD1 nude mouse at 25 mg/kg, po by LC/MS/MS analysis; type: ADME, organism-based; set-up: dose 25 mg/kg, route oral; settings: in vivo
[13] = AUC in athymic CD1 nude mouse at 25 mg/kg, po by LC/MS/MS analysis; type: ADME, organism-based; set-up: dose 25 mg/kg, route oral; settings: plasma
[14] = target: T2, Serine/threonine-protein kinase PLK4 (Homo sapiens, UniProt O00444); experiment: Inhibition of PLK4 (unknown origin) by ELISA
T2 sequence (O00444 whole entry): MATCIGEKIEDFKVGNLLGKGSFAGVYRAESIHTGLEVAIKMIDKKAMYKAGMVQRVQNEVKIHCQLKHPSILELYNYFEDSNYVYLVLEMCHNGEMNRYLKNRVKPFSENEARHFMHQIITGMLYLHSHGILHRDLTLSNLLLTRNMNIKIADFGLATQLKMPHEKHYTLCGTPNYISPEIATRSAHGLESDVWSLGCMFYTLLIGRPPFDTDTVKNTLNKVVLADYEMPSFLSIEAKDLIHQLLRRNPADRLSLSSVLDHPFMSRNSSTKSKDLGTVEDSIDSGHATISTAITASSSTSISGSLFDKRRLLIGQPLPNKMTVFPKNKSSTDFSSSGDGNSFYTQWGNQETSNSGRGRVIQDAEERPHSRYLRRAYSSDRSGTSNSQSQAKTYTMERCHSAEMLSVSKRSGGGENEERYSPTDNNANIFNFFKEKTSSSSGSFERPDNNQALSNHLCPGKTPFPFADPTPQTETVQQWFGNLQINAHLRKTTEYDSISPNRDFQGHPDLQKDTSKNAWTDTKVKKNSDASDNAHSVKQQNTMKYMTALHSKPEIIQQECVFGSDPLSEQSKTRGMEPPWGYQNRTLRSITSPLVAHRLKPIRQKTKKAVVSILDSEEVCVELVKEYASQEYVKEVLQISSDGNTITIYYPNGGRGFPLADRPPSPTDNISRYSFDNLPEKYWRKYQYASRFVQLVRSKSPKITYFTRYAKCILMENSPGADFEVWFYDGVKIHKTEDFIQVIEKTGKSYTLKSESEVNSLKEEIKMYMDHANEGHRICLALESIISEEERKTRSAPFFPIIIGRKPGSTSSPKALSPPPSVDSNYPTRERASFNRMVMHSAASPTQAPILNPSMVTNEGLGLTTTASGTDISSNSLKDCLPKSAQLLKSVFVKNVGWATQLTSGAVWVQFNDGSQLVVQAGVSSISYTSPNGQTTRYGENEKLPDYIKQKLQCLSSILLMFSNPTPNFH

[15] = target: T3, Cytochrome P450 3A4 (Homo sapiens, UniProt P08684); experiment: Inhibition of CYP3A4 (unknown origin) using DBF as substrate by fluorescence assay
T3 sequence (P08684 whole entry): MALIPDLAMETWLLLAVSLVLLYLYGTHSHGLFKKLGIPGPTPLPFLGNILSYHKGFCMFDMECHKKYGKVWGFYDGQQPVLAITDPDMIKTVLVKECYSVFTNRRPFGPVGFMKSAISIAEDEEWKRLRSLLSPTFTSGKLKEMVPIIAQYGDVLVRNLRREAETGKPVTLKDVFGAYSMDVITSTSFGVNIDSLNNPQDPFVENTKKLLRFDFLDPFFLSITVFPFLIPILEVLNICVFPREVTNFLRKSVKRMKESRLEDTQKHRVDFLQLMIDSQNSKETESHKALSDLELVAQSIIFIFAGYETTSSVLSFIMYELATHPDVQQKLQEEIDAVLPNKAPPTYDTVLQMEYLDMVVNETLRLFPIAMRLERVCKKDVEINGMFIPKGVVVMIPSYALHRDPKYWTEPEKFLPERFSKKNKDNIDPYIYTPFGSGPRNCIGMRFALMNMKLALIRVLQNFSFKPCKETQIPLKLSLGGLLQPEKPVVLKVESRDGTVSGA

[16] = target: T3, Cytochrome P450 3A4; experiment: Inhibition of CYP3A4 (unknown origin) using BFC as substrate by fluorescence assay
[17] = Half life in rat liver microsomes; settings: liver microsomes
[18] = Half life in dog liver microsomes; settings: liver microsomes
[19] = Homo sapiens, MDA-MB-231, 120 h

| SMILES | GI50 [1] | GI50 [2] | GI50 [3] | GI50 [4, 19] | inhibition (INH) [6] | inhibition (INH) [7] | IC50 [8] | IC50 [9] | half-life ([10]; liver microsomes) | half-life ([11]; liver microsomes) | Cmax [12] | AUC [13] | IC50 [14] | IC50 [15] | IC50 [16] | GI50 at 120 h [5] | also measured |
| --- | --- | --- | --- | --- | --- | --- | --- | --- | --- | --- | --- | --- | --- | --- | --- | --- | --- |
| COc1ccc2c(c1)[C@]1(C[C@H]1c1ccc3c(/C=C/c4ccc(CN5[C@H](C)CN(C)C[C@@H]5C)cc4)n[nH]c3c1)C(=O)N2 | 10 nM | 2500 nM | 2300 nM | 2200 nM | Not Active | Not Active | 560 nM | 810 nM | 38 min | > 60 min | 1300 ng/mL | 2200 ng·h/mL | 0.39 nM | 1600 nM | 10000 nM |  | half-life [17]: 49 min; half-life [18]: 39 min |
| COc1ccc2c(c1)[C@]1(C[C@H]1c1ccc3c(/C=C/c4ccc(N5CCN(C)CC5)nc4)n[nH]c3c1)C(=O)N2 | < 1 nM | < 1 nM | 2 nM | 2600 nM | Not Active | Not Active | 2000 nM | 1500 nM | 6 min | 11 min | 200 ng/mL | 380 ng·h/mL |  | 5600 nM | 10000 nM | 47000 nM |  |
| CN1CCN(c2ccc(/C=C/c3n[nH]c4cc([C@@H]5C[C@@]56C(=O)N(C)c5ccccc56)ccc34)cn2)CC1 | 1 nM | 20 nM | 5 nM | 600 nM | Not Active | Not Active | 3800 nM | 1200 nM | 7 min | 27 min | 700 ng/mL | 1600 ng·h/mL | 1.3 nM | 2900 nM | 300 nM |  |  |
| O=C1Nc2ccccc2[C@]12C[C@H]2c1ccc2c(/C=C/c3ccc(N4CCNCC4)cc3)n[nH]c2c1 | 2 nM | 20 nM | 260 nM | 23 nM | Not Active | Not Active | 1700 nM | 900 nM |  |  | 120 ng/mL | 340 ng·h/mL | 0.9 nM | 2800 nM |  | 21000 nM | half-life ([10]; microsomes): 19 min; half-life ([11]; microsomes): 46 min |
| CN(C)Cc1ccc(/C=C/c2n[nH]c3cc([C@@H]4C[C@@]45C(=O)N(C)c4ccccc45)ccc23)cc1 | 2 nM | 1.5 nM | 7 nM | 750 nM | Not Active | Not Active | 2600 nM | 1900 nM |  |  | 510 ng/mL | 1100 ng·h/mL |  | > 1000 nM | 2300 nM | 8000 nM | half-life ([10]; microsomes): 12 min; half-life ([11]; microsomes): 44 min |

More lines, main results first:

| GI50 [1] | GI50 [2] | GI50 [3] | GI50 [4, 19] | inhibition (INH) [6] | inhibition (INH) [7] | IC50 [8] | IC50 [9] | half-life ([10]; liver microsomes) | half-life ([11]; liver microsomes) | Cmax [12] | AUC [13] | IC50 [14] | IC50 [15] | IC50 [16] | SMILES | GI50 at 120 h [5] | also measured |
| --- | --- | --- | --- | --- | --- | --- | --- | --- | --- | --- | --- | --- | --- | --- | --- | --- | --- |
| 6.7 nM | 34000 nM | 22 nM | 5600 nM | Not Active | Not Active | 900 nM | 1500 nM | 17 min | 52 min | 790 ng/mL | 1800 ng·h/mL |  |  |  | O=C1Nc2ccccc2[C@]12C[C@H]2c1ccc2c(/C=C/c3ccc(CN4CC[C@@H](F)C4)cc3)n[nH]c2c1 | 7900 nM |  |
| 2 nM | 2400 nM | 770 nM | 920 nM |  |  |  |  |  |  |  |  |  |  |  | CN1CCC(Oc2ccc(/C=C/c3n[nH]c4cc([C@@H]5C[C@@]56C(=O)Nc5ccccc56)ccc34)cc2)CC1 |  |  |
| 1100 nM | 1300 nM | 84 nM | 9600 nM |  |  |  |  |  |  |  |  | 20 nM |  |  | C[C@@H]1CN(Cc2cccc(/C=C/c3n[nH]c4cc([C@@H]5C[C@@]56C(=O)Nc5ccccc56)ccc34)c2)C[C@H](C)O1 |  |  |
|  |  | 1900 nM |  |  |  |  |  |  |  |  |  |  |  |  | CN(C)Cc1ccc(/C=C/c2n[nH]c3cc([C@@H]4C[C@@]45C(=O)Nc4ccccc45)ccc23)cc1 (racemic) | 28000 nM | GI50 [4]: 12000 nM |

— ChEMBL document CHEMBL3407349, “The discovery of Polo-like kinase 4 inhibitors: identification of (1R,2S).2-(3-((E).4-(((cis).2,6-dimethylmorpholino)methyl)styryl). 1H.indazol-6-yl)-5'-methoxyspiro[cyclopropane-1,3'-indolin]-2'-one (CFI-400945) as a potent, orally active antitumor agent” (J Med Chem, 2015)
